Data reported in patent US6482855B2, “Diamine alkylene diacetic or triacetic acid derivatives, preparation method, use in cosmetic and pharmaceutical compositions and compositions containing them” (L'Oreal S.A., priority 1997, dated 2002).
pIC50: −log10 of the molar value. Where a name gives a salt, the structure may show the parent alone.

Legend:
[1] = test system: V79 cells; experiment: Protection of V79 cells against the toxicity of H2O2 (neutral red technique); format: cell-based; conditions: for pIC50: Cricetulus griseus, 1 hour contact with compound, then 30 μM H2O2 for one hour, cell number after 72 hours by neutral red, read-out: Result (concentration inducing 50% protection), IC50
Procedure: The activity of the compounds was evaluated by their ability to protect V79 cells against the toxicity of H2O2, a technique conventionally used to evaluate the effectiveness of antioxidants or iron-chelating agents.
V79 cells were subcultured in DMEM (Dulbecco Modified Essential Medium) medium supplemented with 10% of foetal calf serum, streptomycin, penicillin and glutamine at 37° C. under an atmosphere of 95% air+5% CO2.
The cells were subsequently seeded at a density of 5×10^3/ml in 96-well plates.
After 24 hours, the cells were rinsed and then incubated with the test compounds at different concentrations.
After a contact time of 1 hour, 30 μM of H2O2 were added and incubated at 37° C. for a further one hour.
The cells were subsequently rinsed and then again brought into contact with the supplemented medium described above.
After 72 hours, the number of cells was evaluated in each well by using the neutral red technique.
The protective effect is assessed by the IC50, which measures the concentration which induces 50% protection against cytotoxicity in comparison with the wells treated only with H2O2.

[2] = Solubility limit noted in the V79 protection test; format: physicochemical; conditions: beyond 1 mM

Row | solubility of compound in the test [2] | SMILES | protection against H2O2 cytotoxicity ([1]; compound at 10 mM, 30 μM H2O2) | pIC50 [1]
1 | – | COc1cc(CN(CCN(CC(=O)O)Cc2cc(OC)c(OC)c(OC)c2)CC(=O)O)cc(OC)c1OC [Comparative 1, the dihydrochloride of N,N′-bis(3,4,5-trimethoxybenzyl)ethylenediamine-N,N′-diacetic acid] | 25% protection only at 10 mM | –
2 | insoluble beyond this point) | COC(=O)CN(CCN(CC(=O)OC)Cc1cc(OC)c(OC)c(OC)c1)Cc1cc(OC)c(OC)c(OC)c1 [Comparative 2] | – | < 3.00
3 | – | COc1cc(CN(CCN(CC(=O)OCOC(C)=O)Cc2cc(OC)c(OC)c(OC)c2)CC(=O)OCOC(C)=O)cc(OC)c1OC [Example 1, bis(acetoxymethyl) [N,N′-bis(3,4,5-trimethoxybenzyl)]-ethylenediamine-N,N′-diacetate] | – | 5.00
